Measured values reported in article PMC10046961, “High-Throughput Screening Assay for Detecting Drug-Induced Changes in Synchronized Neuronal Oscillations and Potential Seizure Risk Based on Ca^2+ Fluorescence Measurements in Human Induced Pluripotent Stem Cell (hiPSC)-Derived Neuronal 2D and 3D Cultures” (Cells, 2023).
Read-outs that look alike come from different tables or passages of the source. Marks after values point to notes of the source that are not given here.

What was measured:
[1] = tested on: hiPSC-derived neurons co-cultured with human primary astrocytes in 2D; assay: Ca2+ transient oscillation assay (FDSS), 2D co-culture; assay type: cell-based; conditions: for effect on peak number / Ca2+ neuronal oscillations, in words: 2D format; for activation at 0.37 µM / activation at 1.11 µM / activation at 3.33 µM / activation at 10 µM / activation at 30 µM: Homo sapiens, 1 h
Text: (§1) In this study, we used cryopreserved excitatory neurons that were differentiated from human induced pluripotent stem cells (hiPSCs; Cat #: EX-SeV-CW50065) (Elixirgen Scientific, Inc., Baltimore, MD, USA). The hiPSCs used, namely, CW50065 were derived from a healthy person and distributed by the California Institute of Regenerative Medicine Human Induced Pluripotent Stem Cell Repository. Human iPSC-derived excitatory neurons were differentiated from CW50065 using a proprietary cocktail of differentiation-inducing factors called Quick-Neuron™ EX-SeV (Batch number: EX-SeV-CW50065-L; Elixirgen Scientific, Inc.), cryopreserved 3 days after differentiation induction and distributed. Human iPSC-derived excitatory neurons were recovered from cryopreservation and maintained essentially as instructed by the manufacturer.
(§2) Cryopreserved human primary astrocytes (#N7805100, Thermo Fisher Scientific, Waltham, MA, USA) were recovered as instructed by the manufacturer and seeded in a 10 cm dish at the density of 2,000,000 cells. The culture was maintained using the Human Astrocytes Kit (#N7805200, Thermo Fisher Scientific) for 12 days. Half of the culture medium was replaced with fresh medium every 2–3 days during the culture period. These astrocytes were harvested using StemPro™ Accutase™ Cell Dissociation Reagent (#A1110501, Thermo Fisher Scientific) when they reached confluency. These cells were cryopreserved in STEM-CELLBANKER® GMP grade (ZENOGEN PHARMA, Kohriyama, Fukushima Japan) at the density of 2,000,000 cells per vial as working stocks for co-culture with neurons in 2D and 3D conditions described below. After a working stock was recovered, astrocytes were directly mixed with hiPSC-derived neurons for plating without further expansion.
Live neurons (hiPSC neurons) and human primary astrocytes were recovered from cryopreservation as described above and seeded in each well of 384-well plates at the density of 10,000 cells (HiPSC-cortical neurons) and human primary astrocytes at 2500 cells (ratio 4:1). These co-cultures were maintained under the medium conditions recommended by the manufacturer, namely Medium N(G2P), to complete the differentiation of excitatory neurons for the first week. […] Half of the culture medium was replaced with fresh medium every 3–4 days during the culture period.
After the incubation, the culture medium containing Cal-520 was replaced with 50 μL of HBSS supplemented with 0.1 mM MgCl2, 2 mM CaCl2, 10 mM HEPES, and 10 mM glucose and incubated at 37 ℃ for 15 min.
(§3) Prior to the fluorescence measurements, all wells to be measured were treated with 0.04% dimethyl sulfoxide (DMSO) to stabilize the oscillation signal. The first recording started 10 min after the addition of DMSO for each plate for 20 min. The effects of the test compound were recorded again starting 60 min after the administration of compounds, for 20 min.
Twenty-five compounds (Table 1) were first dissolved in either DMSO (most compounds) or distilled water depending on the compound, and further diluted with PBS to produce stock solutions concentrated 10-fold. […] The final concentration of DMSO was adjusted to 0.1%. Changes in the fluorescence intensity (FI) produced by Ca^2+ flux were measured at 37 °C for all wells of a 384-well plate simultaneously using the FDSS/µCell system (#C13299, Hamamatsu Photonics, Hamamatsu, Shizuoka, Japan). The excitation and the emission wavelengths were 470 nm and 540 nm, respectively. The recording duration was 20 min with a sampling frequency of 2 Hz for cells cultured under 2D conditions and 10 Hz for cells cultured under 3D conditions.

[2] = tested on: hiPSC-derived neurons co-cultured with human primary astrocytes in 3D; assay: Ca2+ transient oscillation assay (FDSS), 3D spheroids; assay type: cell-based; conditions: for Area under the curve - 3D Mean / Peak Number—3D Mean / Peak width - 3D Mean / Peak-to-peak interval - 3D Mean / Peak amplitude - 3D Mean: 60 min
Text: as §1, §2
We used U-shaped-bottom 96-well plates (#174925, Thermo Fisher Scientific) without any prior coating to make a spheroid in each well. Neurons and astrocytes were seeded and maintained as described for 2D cultures, except for the following modifications. First, neurons and astrocytes were seeded in each well of the 96-well plates at the density of 8000 hiPSC neurons with 8000 human primary astrocytes (8000)/well (ratio 1:1). Second, when the differentiation of excitatory neurons was completed one week after seeding, cells were fed with BrainPhys^TM Neuronal Medium (#05793, […] Technologies, Vancouver, BC, Canada) supplemented with 2% SM1 Neuronal Supplement, 1% N2 Supplement-A, and 10% Neuron culture medium for 5 weeks.
Cells maintained as spheroids (3D) in the U-shaped-bottom 96-well plates were transferred into 384-well spheroid plates (#4516, Merck, Corning, NY, USA) with 25 µL of the culture medium. A Ca^2+-indicating dye solution including […] was prepared using the EarlyTox™ Cardiotoxicity Kit (#R8211, Molecular Devices, LLC, San Jose, CA, USA) according to the manufacturer. Then, the same volume of the dye solution was dispensed into each well.
as §3
Twenty-five compounds (Table 1) were first dissolved in either DMSO (most compounds) or distilled water depending on the compound, and further diluted with PBS to produce stock solutions concentrated 10-fold. Then, 5 μL of each compound solution was injected into each well using an automatic pipetting robot (#4505, ASSIST PLUS pipetting robot, Integra Biosciences Corp., Hudson, NH, USA), so that the final concentration of each compound was 1-fold nominal in the well.

[3] = read-out: Area under the curve - 2D Mean
[4] = read-out: Peak amplitude - 2D Mean
[5] = read-out: Peak-to-peak interval - 2D Mean

Question: With `NCC(=O)O` [glycine] as the compound, how does the “effect on peak number / Ca2+ neuronal oscillations, in words” value [1] read?
Answer: significantly reduced peak number

Question: Which results are given for `C=C(C)[C@H]1CN[C@H](C(=O)O)[C@H]1CC(=O)O` [Kainic Acid]?
Answer: response of positive controls on Ca2+ transient oscillations ([1]; 2D, 4-AP 30 µM, kainic acid 100 µM): significant responses; change of Ca2+ neuronal oscillations (Figure 1) ([1]; 4-AP at 30 µM, kainic acid at 10 µM): inhibition; activation at 0.37 µM [1, 3]: 32.3%; activation at 1.11 µM [1, 3]: 25.2%; activation at 3.33 µM [1, 3]: -48.2%; activation at 10 µM [1, 3]: -100%; activation at 0.37 µM ([1]; read-out: Peak Number—2D Mean): 21%; activation at 1.11 µM ([1]; read-out: Peak Number—2D Mean): 26.8%; activation at 3.33 µM ([1]; read-out: Peak Number—2D Mean): -53.3%; activation at 10 µM ([1]; read-out: Peak Number—2D Mean): -100%; activation at 0.37 µM [1, 4]: 11.8%; activation at 1.11 µM [1, 4]: -2.2%; activation at 3.33 µM [1, 4]: -55%; activation at 10 µM [1, 4]: -100%; activation at 0.37 µM ([1]; read-out: Peak width - 2D Mean): 22%; activation at 1.11 µM ([1]; read-out: Peak width - 2D Mean): 37.4%; activation at 3.33 µM ([1]; read-out: Peak width - 2D Mean): -23%; activation at 10 µM ([1]; read-out: Peak width - 2D Mean): -100%; activation at 0.37 µM [1, 5]: -1.2%; activation at 1.11 µM [1, 5]: -19.6%; activation at 3.33 µM [1, 5]: -53%; activation at 10 µM [1, 5]: -100%; Area under the curve - 3D Mean ([2]; 0.37 µM): 120.5 % change from baseline; Peak Number—3D Mean ([2]; 0.37 µM): 1.3 % change from baseline; Peak width - 3D Mean ([2]; 0.37 µM): 4.9 % change from baseline; Peak-to-peak interval - 3D Mean ([2]; 0.37 µM): 0.2 % change from baseline; Area under the curve - 3D Mean ([2]; 1.11 µM): 141.9 % change from baseline; Peak Number—3D Mean ([2]; 1.11 µM): 16.4 % change from baseline; Peak width - 3D Mean ([2]; 1.11 µM): 10.6 % change from baseline; Peak-to-peak interval - 3D Mean ([2]; 1.11 µM): −16.0 % change from baseline; Area under the curve - 3D Mean ([2]; 3.33 µM): 174.3 % change from baseline; Peak Number—3D Mean ([2]; 3.33 µM): 18.7 * % change from baseline; Peak width - 3D Mean ([2]; 3.33 µM): 41.9 % change from baseline; Peak-to-peak interval - 3D Mean ([2]; 3.33 µM): −13.0 % change from baseline; Area under the curve - 3D Mean ([2]; 10 µM): 58.3 % change from baseline; Peak Number—3D Mean ([2]; 10 µM): 102.8 ** % change from baseline; Peak width - 3D Mean ([2]; 10 µM): −20.1 % change from baseline; Peak-to-peak interval - 3D Mean ([2]; 10 µM): −45.2 % change from baseline; response of positive controls on Ca2+ transient oscillations ([2]; 3D, 4-AP 30 µM, kainic acid 100 µM): significant responses

Question: `NC[C@H](O)c1ccc(O)c(O)c1` [norepinephrine] was tested. Which “effect on peak number / Ca2+ neuronal oscillations, in words” value [1] did it give?
Answer: significantly reduced peak number

Question: Which results are given for `OC(c1cc(C(F)(F)F)nc2c(C(F)(F)F)cccc12)C1CCCCN1` (stereo not shown) [Mefloquine]?
Answer: effect on peak number / Ca2+ neuronal oscillations, in words [1]: significantly reduced peak number; activation at 1.11 µM ([1]; 1.11 µM, 60 min, read-out: Area under the curve - 2D Mean): 14.8%; activation at 1.11 µM ([1]; 1.11 µM, 60 min, read-out: Peak Number—2D Mean): -30.8%; activation at 1.11 µM ([1]; 1.11 µM, 60 min, read-out: Peak amplitude - 2D Mean): 0.5%; activation at 1.11 µM ([1]; 1.11 µM, 60 min, read-out: Peak width - 2D Mean): 15.8%; activation at 1.11 µM ([1]; 1.11 µM, 60 min, read-out: Peak-to-peak interval - 2D Mean): 25%; activation at 3.33 µM ([1]; 3.33 µM, 60 min, read-out: Area under the curve - 2D Mean): -47.2%; activation at 3.33 µM ([1]; 3.33 µM, 60 min, read-out: Peak Number—2D Mean): 16.2%; activation at 3.33 µM ([1]; 3.33 µM, 60 min, read-out: Peak amplitude - 2D Mean): -21.2%; activation at 3.33 µM ([1]; 3.33 µM, 60 min, read-out: Peak width - 2D Mean): -47%; activation at 3.33 µM ([1]; 3.33 µM, 60 min, read-out: Peak-to-peak interval - 2D Mean): 48.2%; activation at 10 µM ([1]; 10 µM, 60 min, read-out: Area under the curve - 2D Mean): -100%; activation at 10 µM ([1]; 10 µM, 60 min, read-out: Peak Number—2D Mean): -100%; activation at 10 µM ([1]; 10 µM, 60 min, read-out: Peak amplitude - 2D Mean): -100%; activation at 10 µM ([1]; 10 µM, 60 min, read-out: Peak width - 2D Mean): -100%; activation at 10 µM ([1]; 10 µM, 60 min, read-out: Peak-to-peak interval - 2D Mean): -100%; activation at 30 µM ([1]; 60 min, read-out: Area under the curve - 2D Mean): -100%; activation at 30 µM ([1]; 60 min, read-out: Peak Number—2D Mean): -100%; activation at 30 µM ([1]; 60 min, read-out: Peak amplitude - 2D Mean): -100%; activation at 30 µM ([1]; 60 min, read-out: Peak width - 2D Mean): -100%; activation at 30 µM ([1]; 60 min, read-out: Peak-to-peak interval - 2D Mean): -100%; Area under the curve - 3D Mean ([2]; 1.11 µM): 159.0 % change from baseline; Peak Number—3D Mean ([2]; 1.11 µM): 2.8 % change from baseline; Peak amplitude - 3D Mean ([2]; 1.11 µM): 149.7 % change from baseline; Peak width - 3D Mean ([2]; 1.11 µM): 2.6 % change from baseline; Peak-to-peak interval - 3D Mean ([2]; 1.11 µM): 7.1 % change from baseline; Area under the curve - 3D Mean ([2]; 3.33 µM): 143.4 % change from baseline; Peak Number—3D Mean ([2]; 3.33 µM): −11.1 % change from baseline; Peak amplitude - 3D Mean ([2]; 3.33 µM): 139.0 % change from baseline; Peak width - 3D Mean ([2]; 3.33 µM): 1.4 % change from baseline; Peak-to-peak interval - 3D Mean ([2]; 3.33 µM): 1.7 % change from baseline; Area under the curve - 3D Mean ([2]; 10 µM): 135.6 % change from baseline; Peak Number—3D Mean ([2]; 10 µM): 7.2 % change from baseline; Peak amplitude - 3D Mean ([2]; 10 µM): 135.0 % change from baseline; Peak width - 3D Mean ([2]; 10 µM): −1.5 % change from baseline; Peak-to-peak interval - 3D Mean ([2]; 10 µM): 12.8 % change from baseline; Area under the curve - 3D Mean ([2]; 30 µM): 74.4 % change from baseline; Peak Number—3D Mean ([2]; 30 µM): −3.7 % change from baseline; Peak amplitude - 3D Mean ([2]; 30 µM): 99.9 % change from baseline; Peak width - 3D Mean ([2]; 30 µM): −10.9 % change from baseline; Peak-to-peak interval - 3D Mean ([2]; 30 µM): 8.3 % change from baseline
